Measured values published in the supplement of paper PMC10307832.

What was measured:
Test in all cases: relative viability (nuclei count vs DMSO), 5 days (fraction); higher = more cells survive
[1] = tested on: NCI-H1975
Outline: (§1)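 Values are medians from duplicate plates. Each reflects relative viability, defined as the nuclei count of treated wells over that of vehicle wells. Lung cancer cell lines in 1536-well plates were pin-tool dosed one day after seeding with one drug alone or with a fixed anchor-drug dose plus five library-drug doses (not always all listed) in √10 steps, then fixed, stained and imaged at 4× after 5 days.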

[2] = tested on: LOU-NH91
Outline: as §1

[3] = tested on: NCI-H358
Outline: as §1

[4] = tested on: NCI-H2342
Outline: as §1

[5] = tested on: LU99A
Outline: as §1

[6] = tested on: EKVX
Outline: as §1

[7] = tested on: BEN
Outline: as §1

[8] = tested on: HOP-62
Outline: as §1

[9] = tested on: PC-3 [JPC-3]
Outline: as §1

[10] = tested on: NCI-H1437
Outline: as §1

[11] = tested on: SW 1573
Outline: as §1

[12] = tested on: 201T
Outline: as §1

[13] = tested on: NCI-H2087
Outline: as §1

[14] = tested on: LCLC-97TM1
Outline: as §1

[15] = tested on: HCC-44
Outline: as §1

[16] = tested on: EPLC-272H
Outline: as §1

[17] = tested on: COR-L 105
Outline: as §1

[18] = tested on: NCI-H2085
Outline: as §1

[19] = tested on: NCI-H2126
Outline: as §1

[20] = tested on: NCI-H1666
Outline: as §1

[21] = tested on: NCI-H647
Outline: as §1

[22] = tested on: NCI-H1395
Outline: as §1

[23] = tested on: HCC-827
Outline: as §1

[24] = tested on: H3255
Outline: as §1

CC(C)Oc1cc(Nc2nc(N[C@@H](C)c3ccc(F)cn3)ncc2Cl)n[nH]1 [AZ23] + N=C(N)NC(=N)NCCc1ccccc1 [Phenformin] (partner 250 µM)
relative viability ([1]; first compound 0.01 µM): 0.43 | relative viability ([1]; first compound 0.03162 µM): 0.416 | relative viability ([1]; first compound 0.3162 µM): 0.397 | relative viability ([2]; first compound 0.01 µM): 0.713 | relative viability ([2]; first compound 0.03162 µM): 0.755 | relative viability ([2]; first compound 0.3162 µM): 0.728 | relative viability ([3]; first compound 0.01 µM): 0.369 | relative viability ([3]; first compound 0.03162 µM): 0.347 | relative viability ([3]; first compound 0.3162 µM): 0.348 | relative viability ([4]; first compound 0.01 µM): 0.683 | relative viability ([4]; first compound 0.03162 µM): 0.634 | relative viability ([4]; first compound 0.3162 µM): 0.564 | relative viability ([5]; first compound 0.01 µM): 0.912 | relative viability ([5]; first compound 0.03162 µM): 0.976 | relative viability ([5]; first compound 0.3162 µM): 0.882 | relative viability ([6]; first compound 0.01 µM): 0.224 | relative viability ([6]; first compound 0.03162 µM): 0.237 | relative viability ([6]; first compound 0.3162 µM): 0.231 | relative viability ([7]; first compound 0.01 µM): 0.292 | relative viability ([7]; first compound 0.03162 µM): 0.282 | relative viability ([7]; first compound 0.3162 µM): 0.268 | relative viability ([8]; first compound 0.01 µM): 0.684 | relative viability ([8]; first compound 0.03162 µM): 0.792 | relative viability ([8]; first compound 0.3162 µM): 0.79 | relative viability ([9]; first compound 0.01 µM): 0.502 | relative viability ([9]; first compound 0.03162 µM): 0.453 | relative viability ([9]; first compound 0.3162 µM): 0.476 | relative viability ([10]; first compound 0.01 µM): 0.298 | relative viability ([10]; first compound 0.03162 µM): 0.336 | relative viability ([10]; first compound 0.3162 µM): 0.345 | relative viability ([11]; first compound 0.01 µM): 0.347 | relative viability ([11]; first compound 0.03162 µM): 0.512 | relative viability ([11]; first compound 0.3162 µM): 0.465 | relative viability ([12]; first compound 0.01 µM): 0.539 | relative viability ([12]; first compound 0.03162 µM): 0.438 | relative viability ([12]; first compound 0.3162 µM): 0.486 | relative viability ([13]; first compound 0.01 µM): 0.645 | relative viability ([13]; first compound 0.03162 µM): 0.449 | relative viability ([13]; first compound 0.3162 µM): 0.458 | relative viability ([14]; first compound 0.01 µM): 0.502 | relative viability ([14]; first compound 0.03162 µM): 0.485 | relative viability ([14]; first compound 0.3162 µM): 0.417 | relative viability ([15]; first compound 0.01 µM): 0.231 | relative viability ([15]; first compound 0.03162 µM): 0.4 | relative viability ([15]; first compound 0.3162 µM): 0.245 | relative viability ([16]; first compound 0.01 µM): 0.33 | relative viability ([16]; first compound 0.03162 µM): 0.302 | relative viability ([16]; first compound 0.3162 µM): 0.378 | relative viability ([17]; first compound 0.01 µM): 0.456 | relative viability ([17]; first compound 0.03162 µM): 0.577 | relative viability ([17]; first compound 0.3162 µM): 0.508 | relative viability ([18]; first compound 0.01 µM): 0.727 | relative viability ([18]; first compound 0.03162 µM): 0.705 | relative viability ([18]; first compound 0.3162 µM): 0.779 | relative viability ([19]; first compound 0.01 µM): 0.51 | relative viability ([19]; first compound 0.03162 µM): 0.539 | relative viability ([19]; first compound 0.3162 µM): 0.532 | relative viability ([20]; first compound 0.01 µM): 0.566 | relative viability ([20]; first compound 0.03162 µM): 0.802 | relative viability ([20]; first compound 0.3162 µM): 0.538 | relative viability ([21]; first compound 0.01 µM): 0.558 | relative viability ([21]; first compound 0.03162 µM): 0.797 | relative viability ([21]; first compound 0.3162 µM): 0.604 | relative viability ([22]; first compound 0.03162 µM): 0.483 | relative viability ([22]; first compound 0.3162 µM): 0.451 | relative viability ([23]; first compound 0.01 µM): 0.436 | relative viability ([23]; first compound 0.03162 µM): 0.42 | relative viability ([23]; first compound 0.3162 µM): 0.404 | relative viability ([24]; first compound 0.01 µM): 0.323 | relative viability ([24]; first compound 0.03162 µM): 0.364 | relative viability ([24]; first compound 0.3162 µM): 0.327

C[C@@H]1CN(CC(=O)Nc2ccc3c(c2)Cc2cccc(-c4cc(=O)cc(N5CCOCC5)o4)c2S3)C[C@H](C)O1 + N=C(N)NC(=N)NCCc1ccccc1 [Phenformin] (partner 250 µM)
relative viability ([1]; first compound 0.04 µM): 0.437 | relative viability ([1]; first compound 0.1265 µM): 0.39 | relative viability ([1]; first compound 0.4 µM): 0.393 | relative viability ([1]; first compound 4 µM): 0.332 | relative viability ([2]; first compound 0.04 µM): 0.792 | relative viability ([2]; first compound 0.1265 µM): 0.691 | relative viability ([2]; first compound 0.4 µM): 0.696 | relative viability ([2]; first compound 4 µM): 0.667 | relative viability ([3]; first compound 0.04 µM): 0.362 | relative viability ([3]; first compound 0.1265 µM): 0.28 | relative viability ([3]; first compound 0.4 µM): 0.371 | relative viability ([3]; first compound 4 µM): 0.28 | relative viability ([4]; first compound 0.04 µM): 0.625 | relative viability ([4]; first compound 0.1265 µM): 0.568 | relative viability ([4]; first compound 0.4 µM): 0.525 | relative viability ([4]; first compound 4 µM): 0.519 | relative viability ([5]; first compound 0.04 µM): 0.742 | relative viability ([5]; first compound 0.1265 µM): 0.985 | relative viability ([5]; first compound 0.4 µM): 1.02 | relative viability ([5]; first compound 4 µM): 0.916 | relative viability ([6]; first compound 0.04 µM): 0.23 | relative viability ([6]; first compound 0.1265 µM): 0.25 | relative viability ([6]; first compound 0.4 µM): 0.234 | relative viability ([6]; first compound 4 µM): 0.221 | relative viability ([7]; first compound 0.04 µM): 0.254 | relative viability ([7]; first compound 0.1265 µM): 0.261 | relative viability ([7]; first compound 0.4 µM): 0.294 | relative viability ([7]; first compound 4 µM): 0.264 | relative viability ([8]; first compound 0.04 µM): 0.613 | relative viability ([8]; first compound 0.1265 µM): 0.689 | relative viability ([8]; first compound 0.4 µM): 0.715 | relative viability ([8]; first compound 4 µM): 0.615 | relative viability ([9]; first compound 0.04 µM): 0.494 | relative viability ([9]; first compound 0.1265 µM): 0.469 | relative viability ([9]; first compound 0.4 µM): 0.475 | relative viability ([9]; first compound 4 µM): 0.488 | relative viability ([10]; first compound 0.04 µM): 0.338 | relative viability ([10]; first compound 0.1265 µM): 0.306 | relative viability ([10]; first compound 0.4 µM): 0.303 | relative viability ([10]; first compound 4 µM): 0.365 | relative viability ([11]; first compound 0.04 µM): 0.438 | relative viability ([11]; first compound 0.1265 µM): 0.315 | relative viability ([11]; first compound 0.4 µM): 0.301 | relative viability ([11]; first compound 4 µM): 0.312 | relative viability ([12]; first compound 0.04 µM): 0.439 | relative viability ([12]; first compound 0.1265 µM): 0.423 | relative viability ([12]; first compound 0.4 µM): 0.477 | relative viability ([12]; first compound 4 µM): 0.517 | relative viability ([13]; first compound 0.04 µM): 0.458 | relative viability ([13]; first compound 0.1265 µM): 0.451 | relative viability ([13]; first compound 0.4 µM): 0.444 | relative viability ([13]; first compound 4 µM): 0.437 | relative viability ([14]; first compound 0.04 µM): 0.354 | relative viability ([14]; first compound 0.1265 µM): 0.469 | relative viability ([14]; first compound 0.4 µM): 0.433 | relative viability ([14]; first compound 4 µM): 0.483 | relative viability ([15]; first compound 0.04 µM): 0.176 | relative viability ([15]; first compound 0.1265 µM): 0.233 | relative viability ([15]; first compound 0.4 µM): 0.161 | relative viability ([15]; first compound 4 µM): 0.114 | relative viability ([16]; first compound 0.04 µM): 0.278 | relative viability ([16]; first compound 0.1265 µM): 0.274 | relative viability ([16]; first compound 0.4 µM): 0.307 | relative viability ([16]; first compound 4 µM): 0.271 | relative viability ([17]; first compound 0.04 µM): 0.503 | relative viability ([17]; first compound 0.1265 µM): 0.444 | relative viability ([17]; first compound 0.4 µM): 0.552 | relative viability ([17]; first compound 4 µM): 0.468 | relative viability ([18]; first compound 0.04 µM): 0.763 | relative viability ([18]; first compound 0.1265 µM): 0.732 | relative viability ([18]; first compound 0.4 µM): 0.694 | relative viability ([18]; first compound 4 µM): 0.595 | relative viability ([19]; first compound 0.04 µM): 0.573 | relative viability ([19]; first compound 0.1265 µM): 0.528 | relative viability ([19]; first compound 0.4 µM): 0.531 | relative viability ([19]; first compound 4 µM): 0.454 | relative viability ([20]; first compound 0.04 µM): 0.57 | relative viability ([20]; first compound 0.1265 µM): 0.553 | relative viability ([20]; first compound 0.4 µM): 0.58 | relative viability ([20]; first compound 4 µM): 0.554 | relative viability ([21]; first compound 0.04 µM): 0.472 | relative viability ([21]; first compound 0.1265 µM): 0.456 | relative viability ([21]; first compound 0.4 µM): 0.606 | relative viability ([21]; first compound 4 µM): 0.504 | relative viability ([22]; first compound 0.04 µM): 0.495 | relative viability ([22]; first compound 0.1265 µM): 0.456 | relative viability ([22]; first compound 0.4 µM): 0.417 | relative viability ([22]; first compound 4 µM): 0.405 | relative viability ([23]; first compound 0.04 µM): 0.429 | relative viability ([23]; first compound 0.1265 µM): 0.402 | relative viability ([23]; first compound 0.4 µM): 0.401 | relative viability ([23]; first compound 4 µM): 0.415 | relative viability ([24]; first compound 0.04 µM): 0.388 | relative viability ([24]; first compound 0.1265 µM): 0.364 | relative viability ([24]; first compound 0.4 µM): 0.319 | relative viability ([24]; first compound 4 µM): 0.367
